The target of this assay is T1, CdgL (c-di-GMP receptor interacting with LysR; YajQ homologue, Le2538) (Lysobacter enzymogenes, UniProt A0A0S2DCE3).
T1 sequence (A0A0S2DCE3 1-160): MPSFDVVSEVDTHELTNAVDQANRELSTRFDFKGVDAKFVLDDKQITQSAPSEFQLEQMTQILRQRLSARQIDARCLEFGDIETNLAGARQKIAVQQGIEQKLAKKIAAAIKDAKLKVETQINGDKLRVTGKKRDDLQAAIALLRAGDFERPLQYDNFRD
In words: microscale thermophoresis. It is filed as binding. On the technique in general: In MST a laser heats a spot of the sample, and binding alters the fluorescence response.

Data on one compound can be found in publication PMC6988422 (Molecular Plant Pathology, 2019).

By Kd is commonly meant the concentration at which binding is half-saturated. A lower Kd goes with a tighter complex. Compound `Nc1nc2c(ncn2[C@@H]2O[C@@H]3CO[P@](=O)(O)O[C@H]4[C@@H](O)[C@H](n5cnc6c(=O)[nH]c(N)nc65)O[C@@H]4CO[P@](=O)(O)O[C@H]3[C@H]2O)c(=O)[nH]1` [c-di-GMP] yielded a dissociation constant Kd of 14.6 µM.
